Reference: ChEMBL document CHEMBL1201862, “PubChem BioAssay data set” (2004)
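A five-concentration, 48-hour dose response in 96-well plates underlies each endpoint, interpolated linearly between surrounding concentrations. At the GI50, growth is halved.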 Activity calls are given as the source filed them. Cut-off read from the data, not from the text of the source: active = GI50 up to about 1.1 µM and inactive = higher.

Experiments:
Assay in all cases: NCI anticancer screen, dose series, 48 h
SNB-75 = tested on: SNB-75
HOP-92 = tested on: HOP-92
SK-MEL-28 = tested on: SK-MEL-28
XF498 = tested on: XF498
UACC-257 = tested on: UACC-257
SK-MEL-2 = tested on: SK-MEL-2
SK-MEL-5 = tested on: SK-MEL-5
NCI-H226 = tested on: NCI-H226
RPMI-8226 = tested on: RPMI-8226
HL-60 = tested on: HL-60
SNB-19 = tested on: SNB-19
NCI-H23 = tested on: NCI-H23
HT-29 = tested on: HT-29
SK-OV-3 = tested on: SK-OV-3
NCI-H522 = tested on: NCI-H522
EKVX = tested on: EKVX
M19-MEL = tested on: M19-MEL
IGROV-1 = tested on: IGROV-1
K562 = tested on: K562
SF-539 = tested on: SF-539

Measured: GI50

Cc1cc(O)c2c(c1)C(=O)c1cc(O)cc(O)c1C2=O [EMODIN]
inactive: SNB-75 32.6 µM | HOP-92 14.4 µM | SK-MEL-28 25.4 µM | XF498 26.1 µM | UACC-257 28.1 µM | SK-MEL-2 33.9 µM | SK-MEL-5 5.94 µM | NCI-H226 20.1 µM | RPMI-8226 17.7 µM | HL-60 26.9 µM | SNB-19 31.8 µM | NCI-H23 14.9 µM | HT-29 33.7 µM | SK-OV-3 30.7 µM | NCI-H522 27.4 µM

CCOC(=O)/C=C/c1c[nH]c(=O)[nH]c1=O
inactive: SNB-75 > 72.6 µM | HOP-92 > 75 µM | SK-MEL-28 > 75 µM | XF498 11.9 µM | UACC-257 > 75 µM | SK-MEL-2 > 75 µM | EKVX > 75 µM | M19-MEL > 75 µM | SK-MEL-5 > 75 µM | NCI-H226 > 75 µM | RPMI-8226 > 39.4 µM | HL-60 > 75 µM | SNB-19 > 75 µM | IGROV-1 > 75 µM | NCI-H23 > 75 µM | HT-29 > 75 µM | SK-OV-3 > 41.5 µM | NCI-H522 > 75 µM | K562 > 75 µM | SF-539 > 75 µM

CC1OC=CC(=O)C1O (configuration not stated)
inactive: SNB-75 > 100 µM | HOP-92 > 100 µM | SK-MEL-28 > 100 µM | XF498 > 100 µM | UACC-257 > 100 µM | SK-MEL-2 > 100 µM | EKVX > 100 µM | M19-MEL > 100 µM | SK-MEL-5 > 100 µM | HL-60 > 100 µM | IGROV-1 > 100 µM | NCI-H23 > 100 µM | HT-29 > 100 µM | SK-OV-3 > 100 µM | NCI-H522 50.4 µM | K562 > 100 µM | SF-539 > 100 µM

O=c1oc2c(ccc3occc32)c(N2CCCCC2)c1-c1ccccc1
inactive: SNB-75 > 80.7 µM | HOP-92 > 73.8 µM | SK-MEL-28 > 100 µM | XF498 > 100 µM | SK-MEL-2 > 100 µM | EKVX > 70.8 µM | M19-MEL > 100 µM | SK-MEL-5 > 72.4 µM | HL-60 24.2 µM | SNB-19 > 100 µM | IGROV-1 > 100 µM | NCI-H23 > 100 µM | HT-29 61.2 µM | NCI-H522 > 86.3 µM | SF-539 > 100 µM

O=C(N[C@@H](c1ccccc1)[C@@H](O)C(=O)OCc1ccc2c(c1)OCO2)c1ccccc1
inactive: SNB-75 > 90.4 µM | HOP-92 > 86.7 µM | SK-MEL-28 > 100 µM | XF498 > 76.2 µM | UACC-257 > 100 µM | SK-MEL-2 > 100 µM | EKVX > 100 µM | M19-MEL > 100 µM | SK-MEL-5 > 100 µM | NCI-H226 > 84.1 µM | RPMI-8226 > 100 µM | HL-60 > 100 µM | SNB-19 > 100 µM | IGROV-1 > 100 µM | NCI-H23 > 100 µM | HT-29 > 100 µM | SK-OV-3 > 100 µM | NCI-H522 > 100 µM | K562 > 100 µM | SF-539 > 100 µM

O=C(O)/C=C/c1ccncc1
inactive: SNB-75 > 100 µM | HOP-92 > 100 µM | SK-MEL-28 > 100 µM | XF498 > 100 µM | UACC-257 > 100 µM | SK-MEL-2 > 100 µM | EKVX > 100 µM | M19-MEL > 100 µM | SK-MEL-5 > 100 µM | NCI-H226 > 100 µM | RPMI-8226 > 100 µM | HL-60 > 100 µM | SNB-19 > 100 µM | IGROV-1 > 100 µM | NCI-H23 > 100 µM | HT-29 > 100 µM | SK-OV-3 > 100 µM | NCI-H522 > 100 µM | K562 > 100 µM | SF-539 > 100 µM

O=C1OC(c2ccccc2)=N/C1=C/c1cccs1
inactive: SNB-75 42.4 µM | HOP-92 > 100 µM | SK-MEL-28 > 100 µM | UACC-257 65.6 µM | SK-MEL-2 49 µM | EKVX > 100 µM | NCI-H226 58.3 µM | RPMI-8226 16.4 µM | HL-60 18.8 µM | SNB-19 61.9 µM | IGROV-1 > 100 µM | HT-29 > 100 µM | SK-OV-3 > 100 µM | K562 30.4 µM | SF-539 27.6 µM

CC1C(=O)CC(c2cccs2)N(N=O)C1c1cccs1 (configuration not stated)
inactive: SNB-75 33.1 µM | HOP-92 23.7 µM | SK-MEL-28 53.2 µM | XF498 3.08 µM | UACC-257 39.1 µM | SK-MEL-2 49.9 µM | EKVX 57.1 µM | M19-MEL 47.8 µM | SK-MEL-5 33.4 µM | NCI-H226 > 92 µM | RPMI-8226 23.7 µM | HL-60 26.7 µM | SNB-19 > 85.3 µM | IGROV-1 98.6 µM | NCI-H23 40.6 µM | HT-29 23.5 µM | SK-OV-3 29.8 µM | NCI-H522 28.2 µM | K562 15.8 µM | SF-539 57.5 µM
